Measurements published in patent EP2281824A1, “Furan-imidazolone derivatives, for the treatment of cognitive, neurodegenerative or neuronal diseases or disorders” (NOSCIRA, S.A., priority 2009, dated 2011).

How the values were obtained:
[1] = biological target: T1, BACE-1 β-Secretase recombinant human enzyme (Homo sapiens, UniProt P56817); experiment: BACE assay (time-resolved fluorescence, TruPoint BACE1 substrate); type: biochemical; conditions: 200 nM peptide substrate, 8 nM enzyme, sodium acetate pH 4.5, 1 h at room temperature; read-out: IC50 Inhibition of BACE Activity
T1 construct: purchased R&D Systems
T1 sequence (P56817 46-501): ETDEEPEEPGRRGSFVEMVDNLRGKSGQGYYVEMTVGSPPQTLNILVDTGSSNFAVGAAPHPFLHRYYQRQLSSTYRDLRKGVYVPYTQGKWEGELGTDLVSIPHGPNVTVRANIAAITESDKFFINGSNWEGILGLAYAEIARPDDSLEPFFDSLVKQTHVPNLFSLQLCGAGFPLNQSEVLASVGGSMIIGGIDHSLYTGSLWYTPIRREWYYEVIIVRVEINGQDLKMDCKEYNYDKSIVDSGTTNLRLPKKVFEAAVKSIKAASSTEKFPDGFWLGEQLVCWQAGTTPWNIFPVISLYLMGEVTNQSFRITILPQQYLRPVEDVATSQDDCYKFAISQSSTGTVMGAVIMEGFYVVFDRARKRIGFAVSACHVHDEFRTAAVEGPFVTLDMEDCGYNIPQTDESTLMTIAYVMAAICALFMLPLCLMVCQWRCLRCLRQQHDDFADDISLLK
Protocol: This assay is based on time-resolved fluorescence ("TRF") technology, using a. BACE peptide substrate containing a fluorescent europium chelate coupled to one end and a quencher coupled to the other end. […] The reagents which are used in this assay are BACE-1 β-Secretase recombinant human enzyme (R&D Systems, Minneapolis, MN), TruPoint™ BACE1 substrate (Perkin Elmer Waltham, MA), sodium acetate, CHAPS and EDTA (Sigma Aldrich, St Louis, MO). The assay is carried out in a 96-well microplate in a final volume of 100 µl using 200 nM peptide substrate and 8 nM enzyme in 50 mM sodium acetate pH 4.5 with 1 mM EDTA and 0.2% (w/v) CHAPS. The plates are incubated for 1 h in the dark at room temperature and then read in a fluorimeter plate reader provided with time-resolved fluorescence capabilities (PolarStar Optima™, BMG-Labtech, Offenburg, Germany) using 337 nm as excitation wavelength and 615 nm as the emission wavelength. Compounds are tested in duplicate using a concentration range extending from 5 nM to 100 µM, using 10 µM H-4848 (commercial BACE inhibitor, BACHEM, Bubendorf, Switzerland) as control.
The compounds of formula (I) of the present invention where submitted to the above indicated assay, in order to determine their BACE activity inhibition. The results, indicated in IC50 format, are indicated below in Table I. IC50 is the half maximal inhibitory concentration, which is a measure of the effectiveness of a compound in inhibiting biological or biochemical function. This quantitative measure indicates the concentration of a particular substance is needed to inhibit a given biological process by half. In other words, it is the half maximal (50%) inhibitory concentration (IC) of a substance.

Aβ secretion = experiment: Inhibition of beta-amyloid secretion (Aβ1-40 ELISA of cell culture supernatants); type: cell-based; conditions: CHO-7W; CHO7w cell line stably transfected with human BACE, 48 hours, Aβ (1-40) in supernatants
Protocol: To quantify human Aβ1-40 an ELISA-based commercial kit was used (Immunoassay Kit Human β Amyloid 1-40, The Genetics Company, Schlieren, Switzerland). Aβ (1-40) peptide was quantified from cell culture supernatants using a CHO7w cell line stably transfected with human BACE. β-Secretase inhibitor IV (Calbiochem, San Diego, CA), was used as Aβ secretion reduction positive control in all the Aβ secretion studies. Cells were grown in DMEM supplemented with 2% Foetal bovine serum, 1% penicillin-streptomycin, 1% L-glutamine and 200 µg/ml G418. Cells were seeded in 96-well culture microplates at 5000 cells/well and treated with 10 µM β secretase inhibitor IV or compounds for 48 hours. Then cell culture supernatants were collected and analyzed according to the kit manufacturer's instructions. At 10 µM β-secretase inhibitor IV the inhibition of Aβ secretion inhibition is usually between 70 and 100 %.
Some of the compounds of formula (I) of the present invention where submitted to the above indicated assay, in order to determine their capacity of inhibiting Aβ secretion. The results, indicated in IC50 format, are indicated below in Table I. Table I

SMILES	IC50 [1]	IC50 (Aβ secretion)
Cc1noc(C)c1-c1ccc(C=C2N=C(N)N(C)C2=O)o1 [Compound 16, 2-amino-5-[5-(3,5-dimethyl-isoxazol-4-yl)-furan-2-ylmethylene]-3-methyl-3,5-dihydro-imidazol-4-one]	1230 nM	–
Cc1noc(C)c1-c1ccc(C=C2N=C(N)NC2=O)o1 [Compound 7, 2-Amino-5-[5-(3,5-dimethyl-isoxazol-4-yl)-furan-2-ylmethylene]-3,5-dihydro-imidazol-4-one]	390 nM	–
COc1ncccc1-c1ccc(C=C2N=C(N)N(C)C2=O)o1 [Compound 14, 2-Amino-5-[5-(2-methoxy-pyridin-3-yl)-furan-2-ylmethylene]-3-methyl-3,5-dihydro-imidazol-4-one]	540 nM	–
COc1ncc(-c2ccc(C=C3N=C(N)NC3=O)o2)c(OC)n1 [Compound 6, 2-amino-5-[5-(2,4-dimethoxy-pyrimidin-5-yl)-furan-2-ylmethylene]-3,5-dihydro-imidazol-4-one]	1320 nM	–
COc1ccc(-c2ccc(C=C3N=C(N)NC3=O)o2)cc1 [Compound 17, 2-Amino-5-[5-(4-methoxy-phenyl)-furan-2-ylmethylene]-3,5-dihydro-imidazol-4-one]	422 nM	35000 nM
COc1ccc(-c2ccc(C=C3N=C(N)NC3=O)o2)cc1Cl [Compound 10, 2-Amino-5-[5-(3-chloro-4-methoxy-phenyl)-furan-2-ylmethylene]-3,5-dihydro-imidazol-4-one]	319 nM	–
COC(=O)c1ccc(OC)c(-c2ccc(C=C3N=C(N)NC3=O)o2)c1 [Compound 9, 3-[5-(2-amino-5-oxo-1,5-dihydro-imidazol-4-ylidenemethyl)-furan-2-yl]-4-methoxy-benzoic acid methyl ester]	711 nM	45000 nM
COc1ccc(-c2ccc(C=C3N=C(N)N(C)C3=O)o2)c(OC)c1 [Compound 15, 2-Amino-5-[5-(2,4-dimethoxy-phenyl)-furan-2-ylmethylene]-3-methyl-3,5-dihydro-imidazol-4-one]	346 nM	–
COCCN1C(=O)C(=Cc2ccc(-c3ccc(OC)c(Cl)c3)o2)N=C1N [Compound 13, 2-Amino-5-[5-(3-chloro-4-methoxy-phenyl)-furan-2-ylmethylene]-3-(2-methoxy-ethyl)-3,5-dihydro-imidazol-4-one]	810 nM	–
COc1ccc(-c2ccc(C=C3N=C(N)NC3=O)o2)c(OC)c1 [Compound 3, 2-amino-5-[5-(2,4-dimethoxy-phenyl)-furan-2-ylmethylene]-3,5-dihydro-imidazol-4-one]	369 nM	–
COc1ccc(-c2ccc(C=C3N=C(N)N(Cc4ccccc4)C3=O)o2)cc1Cl [Compound 12, 2-Amino-3-benzyl-5-[5-(3-chloro-4-methoxy-phenyl)-furan-2-ylmethylene]-3,5-dihydro-imidazol-4-one]	1230 nM	–
COc1ccc(-c2ccc(C=C3N=C(N)N(C)C3=O)o2)cc1Cl [Compound 2, 2-amino-S-[S-(3-chloro-4-methoxy-phenyl)-furan-2-ylmethylene]-3-methyl-3,5-dihydro-imidazol-4-one]	326 nM	–
COc1ccc(C#N)cc1-c1ccc(C=C2N=C(N)N(C)C2=O)o1 [Compound 11, 3-[5-(2-Amino-1-methyl-5-oxo-1,5-dihydro-imidazol-4-ylidenemethyl)-furan-2-yl]-4-methoxy-benzonitrile]	220 nM	–
NC1=NC(=Cc2ccc(-c3ccc4c(c3)OCO4)o2)C(=O)N1 [Compound 4, 2-amino-5-(5-benzo[1,3]dioxol-5-yl-furan-2-ylmethylene)-3,5-dihydro-imidazol-4-one]	250 nM	30000 nM
NC1=NC(=Cc2ccc(-c3ccc([N+](=O)[O-])cc3)o2)C(=O)N1 [Compound 1, 2-amino-5-[5-(4-nitro-phenyl)-furan-2-ylmethylene]-3,5 dihydro-imidazol-4-one]	110 nM	–
CN1C(=O)C(=Cc2ccc(-c3ccc([N+](=O)[O-])cc3)o2)N=C1N [Compound 18, Acetate 1-methyl-4-[5-(4-nitro-phenyl)-furan-2-ylmethylene]-5-oxo-4,5-dihydro-1H-imidazol-2-yl-ammonium]	400 nM	–
NC1=NC(=Cc2ccc(-c3ncccn3)o2)C(=O)N1 [Compound 8, 2-amino-5-(5-pyrimidin-2-yl-furan-2-ylmethylene)-3,5-dihydro-imidazol-4-one]	1300 nM	–
COc1ncccc1-c1ccc(C=C2N=C(N)NC2=O)o1 [Compound 5, 2-amino-5-[5-(2-methoxy-pyridin-3-yl)-furan-2-ylmethylene]-3,5-dihydro-imidazol-4-one]	360 nM	40000 nM
